# Reference: US9492497B2, “Peptides for the treatment of cancer” (ÖSTERREICHISCHE AKADEMIE DER WISSENSCHAFTEN, priority 2013, dated 2016)
# “Also recorded” adds a separate entry of the source. Read-outs that look alike come from different tables or passages of the source. Marks after values point to notes of the source that are not given here. Positions of bridges follow the written chain, without caps; N, C: chain ends. Residues, ends and D or L forms follow the SMILES beside them. No end group written: not given here.
# Assays:
# human red blood cells [1] = conditions: 500 μg/ml peptide; from Zweytick et al., J. Biol. Chem. 286 (2011); cited from earlier work
# [2] = tested on: melanoma cell line SBcl-2; assay: MTS cell proliferation assay, SBcl-2; conditions: 24 h; for IC50: read-out: IC50 SBcl-2 (MTS), MTS cell viability assay
# Procedure: (§1) Epidermis was separated. […] The pellet was resuspended in melanocyte growth media (Biomedica). […] All cell cultures were periodically checked for mycoplasma.
# (§2) Cell proliferation was measured by using a CellTiter 96 AQ nonradioactive cell proliferation assay (Promega). Cells were plated in 96-well plates and grown until confluence. Peptides were added to a final concentration of 5-100 μM. After incubation for 24 h at 37° C. (5% CO2) MTS [3-(4,5-dimethylthiazol-2yl)-5-(3-carboxymethoxyphenyl)-2-(4-sulfophenyl)-2H-tetrazolium]-phenozine methosulfate solution (20 μl/well) was added and cells were again incubated for 2 h at 37° C. (5% CO2). The MIS compound is bioreduced by cells into a colored formazan product that is soluble in tissue culture medium. The quantity of the formazan product as measured by the amount of 490 nm absorbance is directly proportional to the number of living cells in culture. Data are calculated as a percentage of the control (untreated) samples and represent the average of three wells in one experiment which was repeated three times per cell line.
# (§3) To determine long-time toxicity of peptides, a MTS cell proliferation assay was used to elucidate cell viability upon 24 h incubation with variant peptide concentration and human melanoma cell lines SBcl-2 and WM164 and non-differentiated human skin fibroblast cell line NHDF.
# [3] = tested on: melanoma metastasis WM164; conditions: for IC50: read-out: IC50 WM164 (MTS), 24 h
# Procedure: as §1, §2, §3
# [4] = tested on: normal human dermal fibroblasts (NHDF); assay: PI-uptake assay, NHDF; format: cell-based; conditions: 8 h
# Text: as §1
# [5] = MTS cell proliferation assay, NHDF; conditions: human, NHDF (normal human dermal fibroblasts)
# Procedure: as §1, §2, §3
# [6] = tested on: human skin fibroblast cell line NHDF; assay: MTS cell proliferation assay, NHDF; conditions: read-out: IC50 Fibroblasts / NHDF (MTS); MTS cell viability assay, 24 h
# Procedure: as §1, §2, §3
# [7] = tested on: melanoma cell line SBcl-2; assay: PI-uptake assay, SBcl-2; format: cell-based, human; conditions: 8 h; for IC50: PI-uptake
# Procedure: as §1
# Cells were incubated in media containing serum for 8 h in the presence of peptides. Peptide concentrations were varied from 10 to 80 μM.
# [8] = tested on: tumor over non tumor cells; assay: Specificity for tumor over non tumor cells (PI uptake studies); format: cell-based, human; conditions: for Cancer Specificity, -fold specificity for melanoma over non tumor skin cells: melanoma (SBcl2 or A375) over melanocytes or NHDF-c, 8 hours, PI uptake
# Text: as §1
# human red blood cells [9] = assay: Hemolysis; format: cell-based; conditions: for % lysis of 2.5% RBCs: one hour, 37° C.; for hemolysis IC50: human red blood cells
# Procedure: The hemolytic activity towards human red blood cells (RBCs), which were obtained from heparinized human blood, was determined by the release of hemoglobin following one hour incubation at 37° C. in MHNA (Mueller Hinton cation Non Adjusted). Percentage of hemolysis of RBCs was calculated using 1% Triton as 100% lysis and PBS as 0% lysis, peptide concentration was 500 μg/ml.
# [10] = tested on: non-cancer cells (melanocytes, NHDF); assay: PI-uptake assay, non-cancer cells pooled; conditions: 20 μM peptide, up to 8 h
# Procedure: The primary human melanoma cell line SBcl2 and the metastatic melanoma WM164 were maintained in RPMI (Sigma) supplemented with 2% FBS, 2% L-glutamine and 1% Pen/Strep. Glioblastoma (U87-mg) purchased from CLS (Cell Line Service Heidelberg, Germany) and Rhabdomyosarcoma cell lines (TE671) purchased from ECAAC (Health Protection Agency Culture Collections Salisbury, UK) are cultured in Dulbecco's Modified Eagle Medium (DMEM) with addition of 2 mM Glutamine, 10% FBS (fetal bovine serum). Melanoma cell line A375 CLS (Cell Line Service Heidelberg, Germany) was cultured in Dulbecco's Modified Eagle Medium (DMEM)(PAA) with addition of 2 mM Glutamine and 10% FBS (fetal bovine serum. Human melanocytes used as healthy control cells: were isolated from the foreskin). The foreskin was cut into small pieces and incubated with 0.3% trypsin (PAA) overnight at 4° C. and for one hour at 37° C. Epidermis was separated. Cells were mechanically removed from the cell layer and centrifuged at 300 g for 3 min. The pellet was resuspended in melanocyte growth media (Biomedica). Melanocytes were further cultured in human melanocytes growth medium (PromoCell GmbH). […]
# For detection of PI-uptake by fluorescence spectroscopy experiments were performed according to the following protocol. […]
# Cytotoxicity was calculated from the percentage of PI positive cells in media alone (P0) and in the presence of peptide (PX). […]
# [11] = tested on: cancer cells (SBcl-2, WM164); conditions: read-out: IC50 against cancer cells (MTS), 24 h, FIG. 6C
# Procedure: as §1, §2, §3
# [12] = tested on: cancer cells (SBcl-2, WM164, TE671); assay: PI-uptake assay, cancer cells pooled; format: cell-based; conditions: 20 μM peptide; for cytotoxic activity against cancer cells (killing): up to 8 h
# Text: as §1
# A375 melanoma cell line = conditions: 20 μM peptide, 8 h, PI-uptake
# Text: as §1
# [13] = tested on: U87 mg glioblastoma cell line; conditions: 20 μM peptide, 8 h, PI-uptake
# Text: as §1
# [14] = Tryptophan fluorescence and quenching, healthy mimic; conditions: in presence of PC
# Procedure: (§4) Tryptophan fluorescence spectra were obtained at room temperature using an excitation wavelength of 282 nm and a slit width of 5 nm for excitation and emission monochromators. Quenching of Tryptophan was carried out in the presence and absence of phospholipid liposomes (lipid to peptide ratio 25:1) using 0.1, 0.4 and 0.7 M acrylamide. The data were analyzed according to the Stern-Volmer equation: F0/F=1+KSV[Q] where F0 and F represent the fluorescence emission intensities in the absence and presence of the quencher molecule (Q) and KSV is the Stern-Volmer quenching constant, which is a quantitative measure for the accessibility of tryptophan to acrylamide (Tao, T. and Cho, J. Biochemistry 18(1979), 2759-2765).
# [15] = Tryptophan fluorescence and quenching, cancer mimic; conditions: in presence of target lipid PS
# Procedure: as §4
# [16] = tested on: caspase-3/7 activity of melanoma cell line SBcl-2; assay: Spectrofluorimetric analysis of caspase-3/7 activity; format: cell-based, human; conditions: SBcl-2, 10-20 μM peptide, 4 hours
# Procedure: Spectrofluorimetric analysis of caspase-3/7 activity 5×10^5 cells/ml were seeded into 96-well plate and grown overnight at 37° C. and 5% CO2. Cells were incubated with different concentrations of peptide for 4 hours. Apo-ONE® caspase-3/7 reagent was added in a 1:1 volume ratio and cells were incubated for 4 hours. Cells were then analyzed by fluorescence spectroscopy (GloMax®-Multi+ Microplate Multimode Reader with Instinc™). Untreated cells were used as negative control. Analysis was performed with Apo-ONE® Homogeneous Caspase-3/7 Assay (see FIG. 7).
# [17] = tested on: melanoma metastasis WM164; assay: PI-uptake assay, WM164; format: cell-based, human; conditions: 20 μM peptide
# Procedure: as §1
# (§5) Cells were incubated in media containing serum for 8 h in the presence of peptides. Peptide concentrations were varied from 10 to 80 μM. FIG. 3 illustrates that the peptide moiety PEP-322 is only minor active against the melanoma cell line SBcl-2 with less than 5% killing at a peptide concentration of 80 μM, as well as against melanocytes with a moderate two-fold selectivity for WM164 cells at 20 μM peptide concentration (FIG. 3C).
# [18] = tested on: differentiated non-tumorigenic melanocytes; assay: PI-uptake assay, melanocytes; format: cell-based, human; conditions: 20 μM peptide, 8 h
# Procedure: as §1, §5
compound,measurement,setting,value
"PFWRIRIRR-NH2 [PEP-322, PFWRIRIRR-NH2]",% lysis of 2.5% RBCs,human red blood cells [1],2^b %
same,cell viability SBcl-2,"[2]; 100 μM peptide, MTS",40%
same,IC50,[2],90 µM
same,cell viability WM164,"[3]; 100 μM peptide, 24 h, MTS",more than 70%
same,IC50,[3],> 100 µM
same,IC50,[4],> 80 µM
same,"viability at 24 h, 100 μM",[5],> 70%
same,IC50,[6],> 100 µM
same,IC50,[7],> 80 µM
RWKRINRQWFFWQRNIRKWR-NH2 [R-DIM-PEP-316],activity and selectivity for cancer cells (in words),[8],specific; also recorded: selective for cancer cells
same,"Cancer Specificity, -fold specificity for melanoma over non tumor skin cells",[8]; 20 μM peptide,Yes (15fold) (R-DIM-)
FWQRRIRRWRRFWQRRIRRWRR-NH2 [DIM-PEP-318],hemolytic activity (in words),"human red blood cells [9]; 500 μg/ml peptide, 2.5% red blood cells",not hemolytic
same,% lysis of 2.5% RBCs,human red blood cells [9]; 500 μg/ml peptide,2.87 ± 0.57%
same,hemolysis IC50,human red blood cells [9],>500 µg/mL
same,"non-cancer toxicity (melanocytes, NHDF)",[10],highly active
same,IC50,[11],< 10 µM
same,IC50,[4],< 20 µM
same,IC50,[6],10 µM
same,cytotoxic activity against cancer cells (killing),[12],up to 90%
same,IC50,[7],< 20 µM
PFWRIRIRR PFWRIRIRR (PFWRIRIRRPFWRIRIRR) [DIM-PEP-322],activity and selectivity for cancer cells (in words),[8],selective for cancer cells
same,"Cancer Specificity, -fold specificity for melanoma over non tumor skin cells",[8]; 20 μM peptide,yes (50fold)
PFFWRIRIRRPFFWRIRIRR-NH2 [DIM-PEP-324],activity and selectivity for cancer cells (in words),[8],selective for cancer cells
same,"Cancer Specificity, -fold specificity for melanoma over non tumor skin cells",[8]; 20 μM peptide,"yes (7fold) (DIM-),"
PFWRRRIRIRR RRIRIRRRWFP (PFWRRRIRIRRRRIRIRRRWFP) [R-DIM-PEP-337],activity and selectivity for cancer cells (in words),[8],less specific
same,"Cancer Specificity, -fold specificity for melanoma over non tumor skin cells",[8]; 20 μM peptide,(2fold) (R-DIM-)
PFWRIRIRRD DRRIRIRWFP (PFWRIRIRRDDRRIRIRWFP) [R-DIM-PEP-323],activity and selectivity for cancer cells (in words),[8],selective for cancer cells
CC[C@H](C)[C@H](NC(=O)[C@@H]1CSSC[C@H](NC(=O)[C@H](CCCCN)NC(=O)[C@@H](N)[C@@H](C)O)C(=O)N[C@@H](Cc2ccccc2)C(=O)N[C@@H](CCC(N)=O)C(=O)N[C@@H](Cc2c[nH]c3ccccc23)C(=O)N[C@@H](CCC(N)=O)C(=O)N[C@@H](CCCNC(=N)N)C(=O)N[C@@H](CC(N)=O)C(=O)N[C@@H](CCSC)C(=O)N[C@@H](CCCNC(=N)N)C(=O)N[C@@H](CCCCN)C(=O)N[C@@H](C(C)C)C(=O)N[C@@H](CCCNC(=N)N)C(=O)NCC(=O)N2CCC[C@H]2C(=O)N2CCC[C@H]2C(=O)N[C@@H](C(C)C)C(=O)N[C@@H](CO)C(=O)N1)C(=O)N[C@@H](CCCCN)C(=O)N[C@@H](CCCNC(=N)N)C(=O)N[C@@H](CC(=O)O)C(=O)N[C@@H](CO)C(=O)O [hLFcin (37-61)] (H-TKCFQWQRNMRKVRGPPVSCIKRDS-OH; disulfide 3-20),cytotoxicity against melanoma cell line A375,A375 melanoma cell line,only weak activity
same,cytotoxicity against glioblastoma cell line U87 mg,[13],only weak activity
same,toxicity against normal human dermal fibroblasts NHDF-c,[4],no toxicity
PFWRIRIRR RRIRIRWFP (PFWRIRIRRRRIRIRWFP) [R-DIM-PEP-322],activity and selectivity for cancer cells (in words),[8],selective for cancer cells
same,"Cancer Specificity, -fold specificity for melanoma over non tumor skin cells",[8]; 20 μM peptide,"(DIM-), 20fold"
same,time to highest activity against cancer cells,[12],≥ 8 h
"PFWRIRIRRPRRIRIRWFP-NH2 [R-DIM-P-PEP-322, PFWRIRIRRPRRIRIRWFP-NH2]","blue shift of Trp emission wavelength, PC",[14],no blue shift appears
same,"blue shift of Trp emission wavelength, PS",[15],blue shift is only detected in presence of the target lipid PS
same,increase of green fluorescence (caspase-3/7 activity),[16],200 fold
same,% lysis of 2.5% RBCs,human red blood cells [9]; 500 μg/ml peptide,0.84 ± 0.63%
same,hemolysis IC50,human red blood cells [9],>500 µg/mL
same,IC50,[2],8 µM
same,sensitivity of WM164 for the peptide,[17],highly sensitive
same,IC50,[3],15 µM
same,IC50,[4],> 80 µM
same,IC50,[6],80 µM
same,activity and selectivity for cancer cells (in words),[8],cancer active and specific; also recorded: selective for cancer cells
same,specificity for cancer cells (PI-uptake ratio SBcl-2 vs. melanocytes),"[8]; 20 μM peptide, 8 h",more than 100 fold
same,"Cancer Specificity, -fold specificity for melanoma over non tumor skin cells",[8]; 20 μM peptide,"(R-DIM-), >100fold)"
same,melanocytes killed,[18],less than 1%
same,time to highest activity against cancer cells,[12],4 to 8 h
same,cytotoxic activity against cancer cells (killing),[12],up to 80%
same,PI positive SBcl-2 cells,[7]; 20 μM peptide,more than 80%
